Measured values from PMC8233162, “Structural characterization of two solute-binding proteins for N,N′-diacetylchitobiose/N,N′,N′′-triacetylchitotoriose of the gram-positive bacterium, Paenibacillus sp. str. FPU-7” (Journal of Structural Biology: X, 2021).
Like-named read-outs stand apart in the source and are kept apart here.

Legend:
Format in all cases: binding, Paenibacillus sp. FPU-7
[1] = target: T1, NagB2; assay: SPR (Biacore X100), crystal structure at […] Å, DSF
T1 construct: recombinant without signal peptide (Met1 to Ala20), C-terminal LEHHHHHH

[2] = target: T2, NagB1; assay: SPR (Biacore X100), crystal structure at […] Å, DSF
T2 construct: recombinant without Met1–Ser21 signal peptide and Cys22–Phe48 (starts at Thr49), C-terminal LEHHHHHH

[3] = target: T2, NagB1; assay: SPR (Biacore X100), DSF
[4] = target: T1, NagB2; assay: SPR (Biacore X100), crystal structure at […] Å, DSF; remark: listed apart in the source

Row | Kd [1] | Kd [2] | Kd [3] | Kd [4] | SMILES
1 | 190 nM | 173 nM |  |  | CC(=O)N[C@H]1[C@H](O[C@H]2[C@H](O)[C@@H](NC(C)=O)C(O)O[C@@H]2CO)O[C@H](CO)[C@@H](O)[C@@H]1O (stereo partly shown) [(GlcNAc)2, N,N′-diacetylchitobiose]
2 |  |  | 2970 nM | 1120 nM | CC(=O)N[C@H]1[C@H](O[C@H]2[C@H](O)[C@@H](NC(C)=O)C(O)O[C@@H]2CO)O[C@H](CO)[C@@H](O[C@@H]2O[C@H](CO)[C@@H](O)[C@H](O)[C@H]2NC(C)=O)[C@@H]1O (stereo partly shown) [(GlcNAc)3, N,N′,N′′-triacetylchitotoriose]
